Usually IC50 stands for the point on the concentration scale where inhibition reaches its midpoint.

The structures appear in SMILES notation.

This passage reports IC50 results from BindingDB's records for doi:10.1016/j.chembiol.2007.03.013 (Portland State University, 2007).

The target of experiment [1] is T1, 3-oxoacyl-[acyl-carrier-protein] synthase 3 (Mycobacterium tuberculosis (strain CDC 1551 / Oshkosh), UniProt P9WNG2).
T1 sequence (P9WNG2 whole entry): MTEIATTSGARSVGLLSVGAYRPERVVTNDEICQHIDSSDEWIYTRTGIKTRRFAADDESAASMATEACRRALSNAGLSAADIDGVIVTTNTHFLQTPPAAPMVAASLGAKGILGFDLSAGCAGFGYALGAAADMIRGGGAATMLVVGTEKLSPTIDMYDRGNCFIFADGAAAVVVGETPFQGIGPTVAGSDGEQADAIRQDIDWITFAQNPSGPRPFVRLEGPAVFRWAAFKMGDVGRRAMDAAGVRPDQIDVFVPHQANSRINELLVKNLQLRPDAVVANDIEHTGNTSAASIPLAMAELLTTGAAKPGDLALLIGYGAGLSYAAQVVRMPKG
Nature of the experiment: FabH Enzyme Assay. The conditions noted are these: pH 7; 37 °C. The method, then:
(§1) Escherichia coli FabH assays were carried out using standard coupled trichloroacetic acid precipitation assay to determine the rate formation of radiolabeled 3-ketoacyl-ACP from malonyl-ACP. Mycobacterium tuberculosis FabH assay was done by sustituting malonyl-CoA for MACP.

Experiment [2] concerns the target T2, 3-oxoacyl-[acyl-carrier-protein] synthase 3 (Escherichia coli, UniProt C3TDZ2).
T2 sequence (C3TDZ2 whole entry): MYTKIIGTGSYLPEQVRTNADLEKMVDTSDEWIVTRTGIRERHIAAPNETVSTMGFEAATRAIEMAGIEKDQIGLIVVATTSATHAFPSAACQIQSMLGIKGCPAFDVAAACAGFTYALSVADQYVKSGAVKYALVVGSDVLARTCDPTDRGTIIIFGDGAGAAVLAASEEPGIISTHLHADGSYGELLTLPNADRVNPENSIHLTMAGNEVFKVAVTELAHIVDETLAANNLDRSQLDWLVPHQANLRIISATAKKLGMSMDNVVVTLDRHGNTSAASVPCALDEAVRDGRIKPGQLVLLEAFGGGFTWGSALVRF
Nature of the experiment: FabH Enzyme Assay. The conditions noted are these: pH 7; 37 °C. The method, then:
as §1

In the case of `CCCCCCCCSSCCNC(=O)CCNC(=O)C(O)C(C)(C)OP(=O)(O)OP(=O)(O)OCC1OC(n2cnc3c(N)ncnc32)C(O)C1OP(=O)(O)O` (stereo not drawn) [Octyl-CoA disulfide 4], the IC50 was 30.1 µM in experiment [1] and greater than 300 µM in experiment [2].
On the same counts, the results for `CSSCCNC(=O)CCNC(=O)C(O)C(C)(C)OP(=O)(O)OP(=O)(O)OCC1OC(n2cnc3c(N)ncnc32)C(O)C1OP(=O)(O)O` (stereo not drawn) [Methyl-CoA disulfide 1] are greater than 300 µM and 57.1 µM.
In the case of `CCCCSSCCNC(=O)CCNC(=O)C(O)C(C)(C)OP(=O)(O)OP(=O)(O)OCC1OC(n2cnc3c(N)ncnc32)C(O)C1OP(=O)(O)O` (stereo not drawn) [Butyl-CoA disulfide 2], the IC50 in experiment [1] and in experiment [2] was greater than 300 µM in each case.
For the compound `CCCCCCCCCCSSCCNC(=O)CCNC(=O)C(O)C(C)(C)OP(=O)(O)OP(=O)(O)OCC1OC(n2cnc3c(N)ncnc32)C(O)C1OP(=O)(O)O` (stereo not drawn) [Decyl-CoA disulfide 5], the half-inhibitory concentration (IC50) in experiment [1] was 1.2 µM; in experiment [2], greater than 300 µM.
